Consider 13 compounds from ChEMBL document CHEMBL2413039, “Novel N-hydroxyfurylacrylamide-based histone deacetylase (HDAC) inhibitors with branched CAP group (Part 2)” (Bioorg Med Chem, 2013).

Values after ≈ are worked out from the molar mass of the structure shown.

The target of one data set is Histone deacetylase. The format is protein assay, Homo sapiens. As to conditions: hela.
The test system of the next data set is A549. In words: cells. The format is functional, cell-based. Conditions: Homo sapiens, A549, 48 h.
The subject of another data set is HepG2. Briefly: cells. It counts as functional, cell-based. As to conditions: Homo sapiens, HepG2, 48 h.
Data set [1] is described as follows: Intrinsic aqueous solubility of the compound at pH 7.4 by Avdeef-Tsinman potentiometric titration method. It counts as physicochemical. Conditions: read-out: Intrinsic_solubility.
In a further data set the test system is PC-3. In words: cells. It counts as functional, cell-based. Conditions: Homo sapiens, PC-3, 48 h.
Data set [2] is described as follows: Partition coefficient, log D of the compound at pH 7.4 by Avdeef-Tsinman potentiometric titration method. It counts as physicochemical. As to conditions: octanol/water.
The next data set relates to HCT-116. Briefly: cells. Conditions: Homo sapiens, HCT-116, 48 h. The format is functional, cell-based.
Data set [3] concerns the target T1, Protein deacetylase HDAC6 (Homo sapiens, UniProt Q9UBN7).
T1 sequence (Q9UBN7 whole entry): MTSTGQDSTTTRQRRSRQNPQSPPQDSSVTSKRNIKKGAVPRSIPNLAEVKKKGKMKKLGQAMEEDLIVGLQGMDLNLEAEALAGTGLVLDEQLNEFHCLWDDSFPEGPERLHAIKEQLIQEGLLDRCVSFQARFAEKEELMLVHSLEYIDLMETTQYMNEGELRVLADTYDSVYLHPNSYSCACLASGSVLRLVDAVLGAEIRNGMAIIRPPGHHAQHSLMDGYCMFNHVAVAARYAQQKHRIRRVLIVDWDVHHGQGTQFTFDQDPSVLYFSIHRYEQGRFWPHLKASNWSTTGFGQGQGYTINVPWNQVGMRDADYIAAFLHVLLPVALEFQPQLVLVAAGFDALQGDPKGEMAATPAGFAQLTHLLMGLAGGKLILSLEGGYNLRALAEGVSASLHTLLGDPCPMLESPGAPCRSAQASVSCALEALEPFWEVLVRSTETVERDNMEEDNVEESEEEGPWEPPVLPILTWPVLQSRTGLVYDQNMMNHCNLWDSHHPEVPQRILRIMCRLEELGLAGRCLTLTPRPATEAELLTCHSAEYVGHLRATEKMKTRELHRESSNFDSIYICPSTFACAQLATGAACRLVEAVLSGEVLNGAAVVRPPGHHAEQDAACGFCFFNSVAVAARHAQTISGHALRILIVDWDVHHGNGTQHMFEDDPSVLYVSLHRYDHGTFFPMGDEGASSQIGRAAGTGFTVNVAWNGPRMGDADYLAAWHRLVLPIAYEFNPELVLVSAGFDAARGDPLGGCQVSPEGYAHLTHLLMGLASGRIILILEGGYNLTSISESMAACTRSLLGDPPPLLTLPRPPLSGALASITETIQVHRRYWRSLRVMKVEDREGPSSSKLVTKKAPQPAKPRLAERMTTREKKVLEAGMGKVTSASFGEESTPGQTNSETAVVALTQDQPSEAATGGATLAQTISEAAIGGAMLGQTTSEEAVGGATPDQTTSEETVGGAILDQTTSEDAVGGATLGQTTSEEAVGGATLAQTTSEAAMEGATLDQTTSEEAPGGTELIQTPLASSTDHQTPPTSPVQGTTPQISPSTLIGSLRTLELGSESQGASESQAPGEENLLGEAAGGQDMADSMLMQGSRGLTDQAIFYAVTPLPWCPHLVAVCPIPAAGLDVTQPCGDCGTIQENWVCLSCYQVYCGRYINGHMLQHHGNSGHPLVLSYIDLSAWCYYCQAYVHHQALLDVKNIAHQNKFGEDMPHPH

For data set [4], the species on record is Homo sapiens. In words: Selectivity ratio of IC50 for human recombinant HDAC1 to human recombinant HDAC6.
The next data set addresses Histone deacetylase 1 (Homo sapiens, UniProt Q13547). Briefly: Inhibition of human recombinant HDAC1 using p53 residues 379-382 (RHKKAc) as substrate.
The next data set addresses Histone deacetylase 4 (Homo sapiens, UniProt P56524). In words: Inhibition of human recombinant HDAC4 using p53 residues 379-382 (RHKKAc) as substrate.
The species named for data set [5] is Homo sapiens. In words: Selectivity ratio of IC50 for human recombinant HDAC4 to human recombinant HDAC6.

Chain of Histone deacetylase 4 (P56524 whole entry, the tested form may be a part): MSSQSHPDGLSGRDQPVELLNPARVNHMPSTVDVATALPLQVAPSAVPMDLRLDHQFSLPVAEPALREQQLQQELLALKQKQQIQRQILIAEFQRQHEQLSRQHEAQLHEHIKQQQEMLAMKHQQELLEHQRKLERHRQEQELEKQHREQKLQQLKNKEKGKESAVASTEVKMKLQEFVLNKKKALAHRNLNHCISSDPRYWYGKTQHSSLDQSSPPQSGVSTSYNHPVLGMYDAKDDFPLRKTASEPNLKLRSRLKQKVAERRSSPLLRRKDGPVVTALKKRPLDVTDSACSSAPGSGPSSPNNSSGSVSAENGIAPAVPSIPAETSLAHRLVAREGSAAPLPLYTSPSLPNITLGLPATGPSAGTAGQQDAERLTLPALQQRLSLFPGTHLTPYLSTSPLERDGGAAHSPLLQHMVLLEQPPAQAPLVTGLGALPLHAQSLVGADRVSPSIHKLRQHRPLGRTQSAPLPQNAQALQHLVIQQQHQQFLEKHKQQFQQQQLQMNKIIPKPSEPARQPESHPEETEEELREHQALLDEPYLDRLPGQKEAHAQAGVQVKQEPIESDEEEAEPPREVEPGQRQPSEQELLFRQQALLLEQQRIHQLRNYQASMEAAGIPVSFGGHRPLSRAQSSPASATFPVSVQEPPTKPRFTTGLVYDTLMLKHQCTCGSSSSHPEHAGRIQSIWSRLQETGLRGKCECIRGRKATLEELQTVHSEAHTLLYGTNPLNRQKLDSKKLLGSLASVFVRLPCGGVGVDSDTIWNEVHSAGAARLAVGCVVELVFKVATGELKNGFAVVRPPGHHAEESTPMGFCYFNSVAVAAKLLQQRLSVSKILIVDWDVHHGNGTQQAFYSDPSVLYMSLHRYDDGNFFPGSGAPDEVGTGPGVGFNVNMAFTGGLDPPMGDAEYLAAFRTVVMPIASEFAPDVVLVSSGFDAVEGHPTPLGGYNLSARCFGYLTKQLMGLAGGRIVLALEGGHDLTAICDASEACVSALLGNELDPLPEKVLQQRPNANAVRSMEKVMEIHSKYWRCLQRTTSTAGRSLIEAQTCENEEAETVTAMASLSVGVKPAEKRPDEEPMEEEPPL
Chain of Histone deacetylase 1 (Q13547 whole entry, the tested form may be a part): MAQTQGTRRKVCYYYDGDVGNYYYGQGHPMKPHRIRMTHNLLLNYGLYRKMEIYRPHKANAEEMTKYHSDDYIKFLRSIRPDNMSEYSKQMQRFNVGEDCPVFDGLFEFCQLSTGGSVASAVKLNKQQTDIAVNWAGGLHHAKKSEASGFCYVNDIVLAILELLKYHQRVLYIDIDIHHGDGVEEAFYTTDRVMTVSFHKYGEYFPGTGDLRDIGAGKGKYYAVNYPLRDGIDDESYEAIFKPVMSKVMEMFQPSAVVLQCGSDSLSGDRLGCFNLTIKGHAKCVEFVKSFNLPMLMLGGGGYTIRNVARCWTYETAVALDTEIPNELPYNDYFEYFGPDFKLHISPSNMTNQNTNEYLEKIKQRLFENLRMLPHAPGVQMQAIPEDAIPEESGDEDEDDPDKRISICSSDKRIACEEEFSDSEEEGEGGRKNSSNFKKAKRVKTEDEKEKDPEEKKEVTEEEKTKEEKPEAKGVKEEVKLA

In turn, `CCCCCCCCN(Cc1ccccc1)Cc1ccc(/C=C/C(=O)NO)o1` had an IC50 at Histone deacetylase of 2.55 µM. In addition, the EC50 turned out to be 6.59 µM with A549, 3.96 µM with HepG2, 42.3 µM in the data set on PC-3 and 0.47 µM in the data set on HCT-116. Moreover, the solubility in [1] amounted to 1900 µM (≈ 731 µg/mL). Also, the logD in data set [2] was 5.28.
Turning to `O=C(/C=C/c1ccc(CN(CCO)Cc2ccccc2)o1)NO`, the IC50 was found to be 0.43 µM in [3], 12.7 µM at Histone deacetylase 1, 0.17 µM on Histone deacetylase and 11.3 µM on Histone deacetylase 4. Also, the Ratio IC50 in the data set listed under Homo sapiens [4] is 29.7; in the data set listed under Homo sapiens [5], 26.3. The EC50 with A549 was 97.2 µM; in the data set on HepG2 it was 128 µM; with PC-3 it was more than 138 µM; in the data set on HCT-116 it was 12.1 µM. The solubility in data set [1] was 4000 µM (≈ 1270 µg/mL). The compound also showed a logD in [2] of 1.62.
For `CCCCN(Cc1ccccc1)Cc1ccc(/C=C/C(=O)NO)o1`, the IC50 in data set [3] turned out to be 0.23 µM; at Histone deacetylase 1, 4.69 µM; against Histone deacetylase it was 0.54 µM; at Histone deacetylase 4 it was 7.26 µM. The values for the Ratio IC50 in the data set listed under Homo sapiens [4] and in the data set filed under Homo sapiens [5] were 20 and 30.9, respectively. For the same compound, the concentration for a half-maximal effect (EC50) worked out at 14.5 µM in the data set with A549, 24.3 µM with HepG2, 20.7 µM in the data set on PC-3 and 18.3 µM in the data set with HCT-116. In data set [1], the solubility worked out at 2300 µM (≈ 755 µg/mL). Further, the logD in data set [2] was 2.97.
For `CCCN(Cc1ccccc1)Cc1ccc(/C=C/C(=O)NO)o1`, the IC50 in data set [3] was 0.18 µM; at Histone deacetylase 1, 4.95 µM; on Histone deacetylase, 0.17 µM; at Histone deacetylase 4 it was 10.6 µM. In addition, the Ratio IC50 is 28.1 in the data set listed under Homo sapiens [4] and 60 in the data set listed under Homo sapiens [5]. Also, the EC50 in the data set on A549 amounted to 23.2 µM; with HepG2, 16.7 µM; in the data set on PC-3, 25 µM; with HCT-116, 24.9 µM. For the same compound, in data set [1], the solubility was found to be 2800 µM (≈ 880 µg/mL). In data set [2], this compound gave a logD of 2.54.
Regarding `Cc1ccc(OCCN(Cc2ccc(-c3ccccc3)cc2)Cc2ccc(/C=C/C(=O)NO)o2)cc1`, the IC50 in data set [3] worked out at 1.14 µM; at Histone deacetylase 1, 4.09 µM; at Histone deacetylase, 1.71 µM; at Histone deacetylase 4, 9.07 µM. Also, the Ratio IC50 in the data set filed under Homo sapiens [4] worked out at 3.59; in the data set filed under Homo sapiens [5], 7.95. Also, the EC50 with A549 came to 23 µM; in the data set on HepG2 it was 19.4 µM; in the data set with PC-3, 18.8 µM; with HCT-116 it was 6.93 µM.
Consider `CC(C)CN(Cc1ccccc1)Cc1ccc(/C=C/C(=O)NO)o1`, for which the 50% inhibitory concentration (IC50) came out at 1.1 µM in [3], 20.6 µM at Histone deacetylase 1, 3.17 µM at Histone deacetylase and 12.3 µM at Histone deacetylase 4. Moreover, the Ratio IC50 in the data set filed under Homo sapiens [4] worked out at 18.7; in the data set filed under Homo sapiens [5], 11.2. Moreover, the EC50 with A549 turned out to be 20.5 µM; in the data set with HepG2, 27.7 µM; in the data set on PC-3, 18.8 µM; with HCT-116, 26.3 µM.
Turning to `CCN(Cc1ccccc1)Cc1ccc(/C=C/C(=O)NO)o1`, the IC50 in [3] worked out at 0.25 µM; on Histone deacetylase 1, 5.44 µM; against Histone deacetylase it was 0.13 µM; at Histone deacetylase 4, 10.7 µM. Also, the Ratio IC50 came out at 21.4 in the data set listed under Homo sapiens [4] and 42.3 in the data set filed under Homo sapiens [5]. The EC50 in the data set on A549 was 38.4 µM; in the data set on HepG2, more than 167 µM; with PC-3, 104 µM; with HCT-116, 6.37 µM. Further, the solubility in [1] was 3000 µM (≈ 901 µg/mL). The same compound yielded a pH-dependent lipophilicity (logD) in data set [2] of 1.95.
On to `CCN(CCc1ccc2c(c1)OCO2)Cc1ccc(/C=C/C(=O)NO)o1`, for which the IC50 in [3] stood at 0.48 µM; on Histone deacetylase 1 it was 7.88 µM; against Histone deacetylase, 2.31 µM; at Histone deacetylase 4, 20 µM. In addition, the values for the Ratio IC50 in the data set listed under Homo sapiens [4] and in the data set listed under Homo sapiens [5] were 16.6 and 41.9, respectively. Also, the half-maximal effective concentration (EC50) came to 84.7 µM in the data set on A549, 81.7 µM with HepG2, 66.5 µM in the data set on PC-3 and 66 µM in the data set with HCT-116.
For the compound `Cc1ccc(OCCN(CCc2ccc3c(c2)OCO3)Cc2ccc(/C=C/C(=O)NO)o2)cc1`, the IC50 amounted to 4.65 µM in data set [3], 17.8 µM at Histone deacetylase 1, 0.84 µM against Histone deacetylase and 52.5 µM at Histone deacetylase 4. Besides, the Ratio IC50 in the data set listed under Homo sapiens [4] is 3.83; in the data set filed under Homo sapiens [5], 11.3. Besides, the EC50 with A549 was determined as 27 µM; in the data set on HepG2, 66.7 µM; with PC-3, 18.7 µM; in the data set with HCT-116 it was 28.5 µM.
The compound `O=C(/C=C/c1ccc(CN(CCO)Cc2ccc(-c3ccccc3)cc2)o1)NO` showed an IC50 against Histone deacetylase of 0.089 µM. Besides, the EC50 was found to be 8.36 µM in the data set with A549, 22.6 µM with HepG2, 15.9 µM with PC-3 and 4.02 µM in the data set with HCT-116. The solubility in data set [1] was determined as 3110 µM (≈ 1220 µg/mL). Moreover, the logD in data set [2] stood at 1.8.
On to `CC(C)N(Cc1ccccc1)Cc1ccc(/C=C/C(=O)NO)o1`, for which the IC50 came to 0.34 µM in data set [3], 2.37 µM on Histone deacetylase 1, 0.18 µM at Histone deacetylase and 3.96 µM on Histone deacetylase 4. Also, the Ratio IC50 in the data set listed under Homo sapiens [4] is 6.94; in the data set filed under Homo sapiens [5] it was 11.6. For the same compound, the EC50 in the data set with A549 was found to be 34.5 µM; in the data set on HepG2, 67.5 µM; with PC-3, 26.9 µM; with HCT-116, 22.7 µM.
As for `O=C(/C=C/c1ccc(CN(CCOc2ccccc2)Cc2ccccc2)o1)NO`, the IC50 is 1.93 µM in data set [3], 20.2 µM at Histone deacetylase 1, more than 2.55 µM on Histone deacetylase and 50.6 µM at Histone deacetylase 4. For the same compound, the Ratio IC50 in the data set filed under Homo sapiens [4] stood at 10.5; in the data set filed under Homo sapiens [5], 26.2. The EC50 with A549 is 52.3 µM; in the data set with HepG2, 44.7 µM; in the data set with PC-3, more than 128 µM; in the data set with HCT-116, 20.1 µM.
In the case of `CCN(Cc1ccc(-c2ccccc2)cc1)Cc1ccc(/C=C/C(=O)NO)o1`, the IC50 in data set [3] turned out to be 0.83 µM; at Histone deacetylase 1 it was 3.42 µM; against Histone deacetylase, 1.25 µM; at Histone deacetylase 4 it was 5.72 µM. For the same compound, the values for the Ratio IC50 in the data set filed under Homo sapiens [4] and in the data set filed under Homo sapiens [5] were 4.11 and 6.87, respectively. In addition, the EC50 turned out to be 8.4 µM in the data set on A549, 12.8 µM in the data set with HepG2, 67.9 µM in the data set with PC-3 and 1.84 µM in the data set on HCT-116.
